Target: T1, Tyrosine-protein phosphatase non-receptor type 22 (Homo sapiens, UniProt Q9Y2R2)
T1 sequence (Q9Y2R2 whole entry): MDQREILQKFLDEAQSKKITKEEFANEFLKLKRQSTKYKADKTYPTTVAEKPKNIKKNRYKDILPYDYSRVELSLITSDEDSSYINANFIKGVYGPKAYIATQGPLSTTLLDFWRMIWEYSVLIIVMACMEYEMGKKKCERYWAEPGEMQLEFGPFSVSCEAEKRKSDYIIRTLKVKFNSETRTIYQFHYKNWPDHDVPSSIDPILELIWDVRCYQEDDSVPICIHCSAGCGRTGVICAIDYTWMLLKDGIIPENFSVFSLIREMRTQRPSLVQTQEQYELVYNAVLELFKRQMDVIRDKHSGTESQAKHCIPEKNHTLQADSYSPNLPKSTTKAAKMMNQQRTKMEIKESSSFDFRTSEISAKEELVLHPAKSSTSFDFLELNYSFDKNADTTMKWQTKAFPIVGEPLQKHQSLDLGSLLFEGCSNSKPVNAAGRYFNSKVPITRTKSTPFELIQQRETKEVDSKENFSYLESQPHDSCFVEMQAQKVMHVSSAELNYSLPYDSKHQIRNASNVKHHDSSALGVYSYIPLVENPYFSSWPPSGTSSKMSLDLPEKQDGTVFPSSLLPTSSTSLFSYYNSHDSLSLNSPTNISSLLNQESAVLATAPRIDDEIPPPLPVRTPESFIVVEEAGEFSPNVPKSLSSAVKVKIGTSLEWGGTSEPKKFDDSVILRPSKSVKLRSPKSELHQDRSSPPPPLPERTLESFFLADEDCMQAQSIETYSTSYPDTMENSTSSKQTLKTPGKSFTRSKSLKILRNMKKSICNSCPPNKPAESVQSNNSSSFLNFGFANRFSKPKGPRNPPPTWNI
Experiment: PubChem AID 2135

SMILES: CCOc1ccc2nc(NC(=O)CSc3cc(O)c4c(C)c(C)sc4n3)sc2c1 [2-[(2,3-dimethyl-4-oxidanylidene-5H-thieno[2,3-b]pyridin-6-yl)sulfanyl]-N-(6-ethoxy-1,3-benzothiazol-2-yl)ethanamide]
- IC50: > 100 µM

Source: BindingDB's records for doi:10.7270/Q2BZ64GK (Burnham Center For Chemical Genomics, 2009)
